Measurements published in publication PMC10396970, “Metal-dependent enzyme symmetry guides the biosynthetic flux of terpene precursors” (Nature Chemistry, 2023).

Legend:
[1] = biological target: T1, PcIDS1 (Phaedon cochleariae, UniProt M1JS91); test: crystal structure; type: binding
T1 construct: N-terminal signal peptide (residues 1-85) removed; N-terminal His6-SUMO tag cut with Ulp1; E. coli BL21(DE3); homodimer; C-terminal residue A429
T1 sequence (M1JS91 86-429): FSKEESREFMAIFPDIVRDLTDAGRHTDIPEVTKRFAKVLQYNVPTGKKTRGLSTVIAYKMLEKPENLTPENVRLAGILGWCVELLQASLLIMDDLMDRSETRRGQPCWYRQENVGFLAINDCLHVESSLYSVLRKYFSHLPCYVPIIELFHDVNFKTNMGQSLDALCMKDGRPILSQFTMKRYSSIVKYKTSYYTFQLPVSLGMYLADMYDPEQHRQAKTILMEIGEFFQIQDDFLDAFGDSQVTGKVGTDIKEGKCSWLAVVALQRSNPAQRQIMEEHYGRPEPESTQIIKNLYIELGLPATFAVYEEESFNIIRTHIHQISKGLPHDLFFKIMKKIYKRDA

[2] = biological target: T1, PcIDS1; test: thermal shift assay (Sypro Orange); type: binding; settings: 5 mM MgCl2, pH 7.0

Q: With `CC(C)=CCC/C(Br)=C/COP(=O)(O)OP(=O)(O)O` [3-Br-GPP] as the compound, how does the crystal structure ([1]; Mg2+, IPP added but not bound, allylic site) read?
A: 3-Br-GPP mimics GPPAl coordination

Q: Which dTm [2] does the source give for `CC(C)=CCC/C(C)=C/CC/C(C)=C/COP(=O)(O)OP(=O)(O)O` [FPP, farnesyl pyrophosphate] here?
A: 7 °C

Q: Which results are given for `CC(C)=CCC/C(C)=C/COP(=O)(O)OP(=O)(O)O` [GPP, geranyl pyrophosphate]?
A: crystal structure ([1]; Mn2+, second site, allosteric): contains well-defined electron density for a second GPP molecule (GPPAllo; Fig. 3h); dTm ([2]; allylic site in the structure): 17 °C

Q: With `C=C(C)CCOP(=O)(O)OP(=O)(O)O` [IPP, isopentenyl pyrophosphate] as the compound, how does the dTm ([2]; allylic and homoallylic sites) read?
A: 7 °C

Q: For `O=P(O)(O)C(O)(Cn1ccnc1)P(=O)(O)O` [ZOL, zoledronic acid], which dTm ([2]; 200 µM ligand, allylic site) is on record?
A: 28 °C
